Test results as given in ChEMBL document CHEMBL1201862, “PubChem BioAssay data set” (2004).
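Five concentrations, 48 hours, 96-well plates. GI50 = concentration required for 50% inhibition of growth.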 Active and inactive are the calls of the source. Cut-off read from the data, not from the text of the source: active = GI50 up to about 1.1 µM and inactive = higher. Where a SMILES comes first, the peptide text is derived from it. [ ]: non-standard residue; d: D form. The star is where a group is joined. Bn2Val = CC(C)[C@@H](C(=O)*)N(Cc1ccccc1)Cc1ccccc1; NH(3,4-diMeO-benzyl) = COc1ccc(CN*)cc1OC; NMeV = CN[C@H](C(=O)O)C(C)C

Tests used:
Test in all cases: NCI-60 cell line screen, 48 h
HOP-92 = test system: HOP-92
UO-31 = test system: UO-31
HT-29 = test system: HT-29
KM12 = test system: KM12
HCT-116 = test system: HCT-116
OVCAR-8 = test system: OVCAR-8
RPMI-8226 = test system: RPMI-8226
K562 = test system: K562
CAKI-1 = test system: CAKI-1
786-0 = test system: 786-0
SF-295 = test system: SF-295
NCI-H226 = test system: NCI-H226
LOX IMVI = test system: LOX IMVI
SR = test system: SR
HOP-62 = test system: HOP-62
CCRF-CEM = test system: CCRF-CEM
SK-OV-3 = test system: SK-OV-3
ACHN = test system: ACHN
SK-MEL-5 = test system: SK-MEL-5
MCF7 = test system: MCF7

Measured: GI50

Cc1ccc(Nc2nc3c(=O)n(C)c(=O)n(C)c3nc2Nc2ccc(C)cc2)cc1
inactive: HOP-92 11.4 µM | UO-31 12.1 µM | HT-29 10.4 µM | KM12 16.4 µM | HCT-116 9.27 µM | OVCAR-8 13.6 µM | RPMI-8226 7.62 µM | K562 6.56 µM | CAKI-1 16.4 µM | 786-0 6.04 µM | SF-295 20.8 µM | NCI-H226 28.8 µM | LOX IMVI 10.1 µM | SR 5.38 µM | HOP-62 18.9 µM | CCRF-CEM 2.3 µM | SK-OV-3 21.9 µM | ACHN 3.46 µM | SK-MEL-5 16.4 µM

COc1ccc(CNC(=O)[C@@H]2CCCN2C(=O)[C@@H]2CCCN2C(=O)[C@H](C(C)C)N(C)C(=O)[C@@H](NC(=O)[C@H](C(C)C)N(Cc2ccccc2)Cc2ccccc2)C(C)C)cc1OC (Bn2Val-V[NMeV]PP-{NH(3,4-diMeO-benzyl)})
inactive: HOP-92 14.9 µM | HT-29 8.3 µM | KM12 21.4 µM | HCT-116 14.4 µM | OVCAR-8 14.5 µM | K562 7.55 µM | CAKI-1 15.8 µM | 786-0 10.4 µM | SF-295 15.1 µM | NCI-H226 17.3 µM | LOX IMVI 4.26 µM | SR 4.54 µM | HOP-62 15.6 µM | CCRF-CEM 4.23 µM | SK-OV-3 16.9 µM | ACHN 13.7 µM | SK-MEL-5 7.5 µM

NC(=O)NC(=O)C1CCC(=O)N1S(=O)(=O)c1ccc(Cl)cc1 (stereo not drawn)
inactive: HOP-92 > 100 µM | UO-31 > 100 µM | HT-29 > 100 µM | KM12 > 100 µM | HCT-116 > 100 µM | OVCAR-8 > 100 µM | RPMI-8226 > 100 µM | K562 > 100 µM | CAKI-1 > 100 µM | 786-0 > 100 µM | SF-295 > 100 µM | NCI-H226 > 100 µM | SR > 100 µM | HOP-62 > 100 µM | CCRF-CEM 77.4 µM | SK-OV-3 > 100 µM | ACHN > 100 µM | SK-MEL-5 > 100 µM

CN1c2ccccc2S(=O)(=O)n2c(COc3ccc(Cl)cc3)nnc21
inactive: HOP-92 28 µM | UO-31 > 100 µM | HT-29 > 100 µM | KM12 > 100 µM | HCT-116 > 100 µM | OVCAR-8 > 100 µM | K562 > 100 µM | CAKI-1 85.7 µM | 786-0 41.5 µM | SF-295 27 µM | NCI-H226 92.5 µM | LOX IMVI > 100 µM | HOP-62 21.7 µM | CCRF-CEM 75.7 µM | SK-OV-3 77.1 µM | ACHN > 100 µM | SK-MEL-5 > 100 µM | MCF7 > 100 µM

O=C1N2Cc3c4ccc5c3CN3C(=O)N6Cc7c(ccc(c7CN1C6(c1ccccc1)C23c1ccccc1)OCCOCCOc1cc(Br)c(Br)cc1OCCOCCO4)OCCOCCOc1cc(Br)c(Br)cc1OCCOCCO5 (stereo not drawn)
inactive: HOP-92 39.2 µM | UO-31 > 100 µM | HT-29 > 100 µM | KM12 > 100 µM | HCT-116 > 100 µM | OVCAR-8 > 100 µM | RPMI-8226 > 100 µM | K562 > 100 µM | CAKI-1 > 100 µM | 786-0 > 100 µM | NCI-H226 > 100 µM | SR > 100 µM | HOP-62 40.8 µM | CCRF-CEM > 100 µM | SK-OV-3 > 100 µM | ACHN 47.8 µM | SK-MEL-5 44.3 µM

CC(=O)OCC1OC(N2C(=O)/C(=N\NC(N)=S)c3ccc([N+](=O)[O-])cc32)C(OC(C)=O)C1OC(C)=O (stereo not drawn)
inactive: HOP-92 43.4 µM | HT-29 30 µM | KM12 38.5 µM | HCT-116 13.7 µM | OVCAR-8 19.4 µM | RPMI-8226 27.9 µM | K562 18.7 µM | CAKI-1 38.4 µM | 786-0 19.8 µM | SF-295 29.1 µM | NCI-H226 28.6 µM | LOX IMVI 19.1 µM | SR 5.98 µM | HOP-62 31.3 µM | CCRF-CEM 12.9 µM | SK-OV-3 > 100 µM | ACHN 30.7 µM | SK-MEL-5 32 µM

COc1c(OC)c(O)c2c(=O)c(OC)c(-c3ccc4c(c3)OCO4)oc2c1O
inactive: HOP-92 1.39 µM | UO-31 > 100 µM | HT-29 36.1 µM | KM12 > 100 µM | HCT-116 38.6 µM | OVCAR-8 > 100 µM | K562 85.3 µM | CAKI-1 > 100 µM | 786-0 > 100 µM | SF-295 77.4 µM | NCI-H226 > 100 µM | LOX IMVI > 100 µM | HOP-62 > 100 µM | CCRF-CEM 55.5 µM | SK-OV-3 > 100 µM | ACHN > 100 µM | SK-MEL-5 38.2 µM | MCF7 > 100 µM

Cc1ccc(Cc2cc(N3CCN(c4cccc(Cl)c4)CC3)nnc2C)cc1
inactive: UO-31 > 100 µM | HT-29 31.6 µM | KM12 44.4 µM | HCT-116 22.5 µM | OVCAR-8 54.8 µM | RPMI-8226 17.8 µM | CAKI-1 > 100 µM | 786-0 45.2 µM | SF-295 42.9 µM | HOP-62 > 100 µM | SK-OV-3 > 100 µM | ACHN 88.5 µM | SK-MEL-5 11.5 µM | MCF7 76.2 µM

C=CCN1C(=O)CS/C1=N\NC(=O)c1c(C)nc2sccn12
inactive: HOP-92 > 100 µM | HT-29 > 100 µM | KM12 > 100 µM | HCT-116 > 100 µM | OVCAR-8 > 100 µM | RPMI-8226 > 100 µM | K562 > 100 µM | CAKI-1 > 100 µM | 786-0 > 100 µM | SF-295 > 100 µM | NCI-H226 > 100 µM | LOX IMVI > 100 µM | SR > 100 µM | HOP-62 > 100 µM | CCRF-CEM > 100 µM | SK-OV-3 > 100 µM | ACHN > 100 µM | SK-MEL-5 > 100 µM

CCNC(=O)/C=C/CCC#Cc1ccc(-c2ccc(-c3cccs3)s2)s1
inactive: HOP-92 > 100 µM | UO-31 > 100 µM | HT-29 > 100 µM | KM12 > 100 µM | HCT-116 > 100 µM | OVCAR-8 > 100 µM | RPMI-8226 > 100 µM | CAKI-1 > 100 µM | 786-0 > 100 µM | SF-295 > 100 µM | NCI-H226 > 100 µM | LOX IMVI > 100 µM | SR > 100 µM | HOP-62 > 100 µM | CCRF-CEM > 100 µM | SK-OV-3 > 100 µM | ACHN > 100 µM | SK-MEL-5 5.24 µM

CSc1nc2c(nc(N)n2C2OC(CO)C(O)C(O)C2O)c(=O)n1C (stereo not drawn)
inactive: HOP-92 > 100 µM | UO-31 > 100 µM | HT-29 > 100 µM | KM12 > 100 µM | HCT-116 > 100 µM | OVCAR-8 > 100 µM | K562 > 100 µM | CAKI-1 > 100 µM | 786-0 > 100 µM | SF-295 > 100 µM | NCI-H226 > 100 µM | LOX IMVI > 100 µM | SR > 100 µM | HOP-62 > 100 µM | CCRF-CEM > 100 µM | SK-OV-3 > 100 µM | ACHN > 100 µM | SK-MEL-5 > 100 µM
